# Data: patent US20190262404A1, “PHARMACEUTICAL COMPOSITION FOR PREVENTING OR TREATING IMMUNE DISEASE OR INFLAMMATORY DISEASE INCLUDING INFLAMMATORY STIMULATED MESENCHYMAL STEM CELL” (SCM LIFESCIENCE CO., LTD., priority 2016, published 2019)
# Like-named read-outs stand apart in the source and are kept apart here.
# What was measured:
# Type in all cases: cell-based, human
# [1] = tested on: MLR-activated PBMCs; assay: ELISA of proinflammatory cytokines, MSCs co-cultured with MLR-activated PBMCs, medium with nAChR antagonist or agonist
# Description: (§1) The medium was harvested from nAChR antagonist or agonist-containing co-culture experiments. The secreted proinflammatory cytokines were quantified using the ELISA kits for TNF-α (BD Biosciences; cat. #555212) and IFN-γ (BD Biosciences; cat. #555141). The medium in which MLR- or PHA-activated PBMCs were cultured was used to carry out the assay for NGF (R&D Systems, Minneapolis, Minn., USA; cat. # DY256-05) and BDNF (R&D Systems; cat. # DBD00).
# (§2) α-Bungarotoxin (EMD Millipore; cat. #203980), an nAChRα7 antagonist, was added to the medium at the concentration of […]. As cholinergic agonists, ACh chloride (Sigma; cat. # A6625) and carbachol (EMD Millipore; cat. #212385) were used at the concentrations of 1 nM and 10 pM, respectively, and the experiments were conducted.
# (§3) In order to confirm ACh-nAChR pathway mechanism of MSCs under the inflammatory conditions, experiments were performed according to the methods described in Experimental Examples 1-2 and 1-10. The mixed lymphocyte reaction (MLR) condition was set such that PBMCs obtained from different donors were cultured together, and the phytohemagglutinin (PHA) treatment condition was set such that PBMCs were treated with PHA. According to inflammatory conditions, each PBMCs only group (P and Po) obtained from different donors; MSCs group co-cultured in mixed lymphocyte reaction (MLR) condition (MSC in MLR); mixed lymphocyte reaction condition group without MSCs (MLR); or MSCs group co-cultured in phytohemagglutinin (PHA) treatment condition (MSC in P^PHA) were placed. A cholinergic antagonist such as α-bungarotoxin (α-BTX, an antagonist of nAChRα7); a cholinergic agonist such as ACh chloride (ACh-Cl, an agonist of AChR); or a non-specific cholinergic agonist such as carbachol was added to the medium, and the activity of TNF-α and IFN-γ of MSCs by each inflammatory condition was confirmed. The results are illustrated in FIG. 14.
# [2] = tested on: PHA-activated PBMCs; assay: ELISA of proinflammatory cytokines, MSCs co-cultured with PHA-activated PBMCs, medium with nAChR antagonist or agonist
# Description: as §1, §2, §3
# [3] = tested on: MLR- or PHA-activated PBMCs; assay: MSCs co-cultured with MLR- or PHA-activated PBMCs in medium supplemented with carbachol; settings: carbachol 10 pM added to MSCs culture medium under the inflammatory condition (FIGS. 15A to 15D)
# [4] = MSCs + MLR-activated PBMCs, α-BTX 1 M or ACh-Cl 1 nM added to the medium
# [5] = MSCs + PHA-activated PBMCs, α-BTX 1 M or ACh-Cl 1 nM added to the medium
compound,measurement,setting,value
α-Bungarotoxin [α-BTX],IFN-γ,[1],activated again
same,TNF-α,[1],activated again
same,IFN-γ,[2],activated again
same,TNF-α,[2],activated again
"CC(=O)OCC[N+](C)(C)C.[Cl-] [ACh-Cl, ACh chloride]",IFN-γ,[1]; [4],significantly inhibited
same,TNF-α,[1]; [4],significantly inhibited
same,IFN-γ,[2]; [5],significantly inhibited
same,TNF-α,[2]; [5],significantly inhibited
C[N+](C)(C)CCOC(N)=O [carbachol],inflammatory cytokine release,[3],inhibited
same,lymphocyte proliferation,[3],inhibited the lymphocyte proliferation
